Results from BindingDB's records for doi:10.1007/s00213-009-1521-8 (Case Western Reserve University, 2009).

Assays:
[1] = biological target: 5-hydroxytryptamine receptor 1B (Homo sapiens, UniProt P28222)
[2] = biological target: Muscarinic acetylcholine receptor M4 (Homo sapiens, UniProt P08173)
[3] = biological target: 5-hydroxytryptamine receptor 3A (Homo sapiens, UniProt P46098)
[4] = biological target: Beta-1 adrenergic receptor (Homo sapiens, UniProt P08588)
[5] = biological target: Alpha-2C adrenergic receptor (Homo sapiens, UniProt P18825)
Mu-type opioid receptor = Mu-type opioid receptor (Homo sapiens, UniProt P35372)
Chain of Mu-type opioid receptor (P35372 whole entry): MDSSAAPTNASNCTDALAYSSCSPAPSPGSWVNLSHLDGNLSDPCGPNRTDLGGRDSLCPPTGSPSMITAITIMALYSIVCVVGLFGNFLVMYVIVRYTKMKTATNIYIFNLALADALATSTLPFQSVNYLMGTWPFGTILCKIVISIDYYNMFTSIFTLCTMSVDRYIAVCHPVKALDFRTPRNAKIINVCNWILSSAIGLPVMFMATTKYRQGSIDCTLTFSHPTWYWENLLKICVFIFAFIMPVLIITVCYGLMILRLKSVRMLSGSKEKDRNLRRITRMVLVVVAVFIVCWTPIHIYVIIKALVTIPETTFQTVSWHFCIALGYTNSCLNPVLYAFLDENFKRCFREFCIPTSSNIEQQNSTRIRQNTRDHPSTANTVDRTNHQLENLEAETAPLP

[6] = biological target: Sigma non-opioid intracellular receptor 1 (Rattus norvegicus, UniProt Q9R0C9)
Chain of Sigma non-opioid intracellular receptor 1 (Q9R0C9 whole entry): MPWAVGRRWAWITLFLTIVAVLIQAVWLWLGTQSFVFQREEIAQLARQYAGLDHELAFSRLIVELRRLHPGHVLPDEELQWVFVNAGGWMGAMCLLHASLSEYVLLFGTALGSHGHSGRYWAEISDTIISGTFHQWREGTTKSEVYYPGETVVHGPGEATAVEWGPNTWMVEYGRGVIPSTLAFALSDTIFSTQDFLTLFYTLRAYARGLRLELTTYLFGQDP

[7] = biological target: Alpha-2A adrenergic receptor (Homo sapiens, UniProt P08913)
[8] = biological target: Beta-2 adrenergic receptor (Homo sapiens, UniProt P07550)
[9] = biological target: 5-hydroxytryptamine receptor 1D (Homo sapiens, UniProt P28221)
Chain of 5-hydroxytryptamine receptor 1D (P28221 whole entry): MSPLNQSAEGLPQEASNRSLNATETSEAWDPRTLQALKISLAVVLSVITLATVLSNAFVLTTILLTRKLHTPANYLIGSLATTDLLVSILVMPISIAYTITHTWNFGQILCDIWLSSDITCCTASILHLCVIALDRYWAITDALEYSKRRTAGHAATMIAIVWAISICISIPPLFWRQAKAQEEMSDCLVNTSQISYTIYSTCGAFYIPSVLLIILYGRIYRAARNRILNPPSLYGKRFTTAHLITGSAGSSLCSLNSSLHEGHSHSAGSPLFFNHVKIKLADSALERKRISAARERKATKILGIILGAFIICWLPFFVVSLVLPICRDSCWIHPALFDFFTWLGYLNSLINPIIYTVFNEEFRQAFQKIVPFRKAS

[10] = biological target: Prostaglandin E2 receptor EP4 subtype (Homo sapiens, UniProt P35408)
[11] = biological target: Alpha-1B adrenergic receptor (Homo sapiens, UniProt P35368)
[12] = biological target: 5-hydroxytryptamine receptor 6 (Homo sapiens, UniProt P50406)
[13] = biological target: Prostaglandin E2 receptor EP3 subtype (Homo sapiens, UniProt P43115)
[14] = biological target: Kappa-type opioid receptor (Homo sapiens, UniProt P41145)
[15] = biological target: 5-hydroxytryptamine receptor 1E (Homo sapiens, UniProt P28566)
Histamine H4 receptor = Histamine H4 receptor (Homo sapiens, UniProt Q9H3N8)
Chain of Histamine H4 receptor (Q9H3N8 whole entry): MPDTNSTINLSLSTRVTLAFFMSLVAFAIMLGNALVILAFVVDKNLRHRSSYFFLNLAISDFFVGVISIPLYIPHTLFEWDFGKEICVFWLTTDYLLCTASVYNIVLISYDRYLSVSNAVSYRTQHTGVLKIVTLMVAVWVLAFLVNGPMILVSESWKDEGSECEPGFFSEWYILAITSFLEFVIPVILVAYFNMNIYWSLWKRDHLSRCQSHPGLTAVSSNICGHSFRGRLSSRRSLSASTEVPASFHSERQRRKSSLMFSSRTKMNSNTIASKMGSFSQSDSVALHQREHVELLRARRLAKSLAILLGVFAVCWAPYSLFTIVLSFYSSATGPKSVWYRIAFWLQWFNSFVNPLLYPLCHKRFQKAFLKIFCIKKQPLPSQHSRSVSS

Histamine H1 receptor = Histamine H1 receptor (Homo sapiens, UniProt P35367)
[16] = biological target: Delta-type opioid receptor (Homo sapiens, UniProt P41143)
[17] = biological target: Muscarinic acetylcholine receptor M5 (Homo sapiens, UniProt P08912)
Chain of Muscarinic acetylcholine receptor M5 (P08912 whole entry): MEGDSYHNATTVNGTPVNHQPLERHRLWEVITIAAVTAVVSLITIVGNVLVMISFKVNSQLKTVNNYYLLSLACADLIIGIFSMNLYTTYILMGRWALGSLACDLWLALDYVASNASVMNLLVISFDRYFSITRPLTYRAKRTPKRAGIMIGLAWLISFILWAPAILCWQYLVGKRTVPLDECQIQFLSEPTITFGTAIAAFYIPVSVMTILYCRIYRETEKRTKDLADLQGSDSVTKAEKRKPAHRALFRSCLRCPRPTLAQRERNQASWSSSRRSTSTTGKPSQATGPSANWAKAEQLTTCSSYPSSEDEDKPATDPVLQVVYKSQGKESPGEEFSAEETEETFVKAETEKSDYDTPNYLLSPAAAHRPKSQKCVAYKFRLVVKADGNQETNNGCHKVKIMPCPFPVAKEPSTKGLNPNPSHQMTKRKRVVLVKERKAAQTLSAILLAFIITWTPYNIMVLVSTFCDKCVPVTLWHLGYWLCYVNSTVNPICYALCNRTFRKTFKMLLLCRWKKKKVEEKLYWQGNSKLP

[18] = biological target: Sodium-dependent noradrenaline transporter (Homo sapiens, UniProt P23975)
[19] = biological target: Muscarinic acetylcholine receptor M1 (Homo sapiens, UniProt P11229)
[20] = biological target: 5-hydroxytryptamine receptor 5A (Homo sapiens, UniProt P47898)
Chain of 5-hydroxytryptamine receptor 5A (P47898 whole entry): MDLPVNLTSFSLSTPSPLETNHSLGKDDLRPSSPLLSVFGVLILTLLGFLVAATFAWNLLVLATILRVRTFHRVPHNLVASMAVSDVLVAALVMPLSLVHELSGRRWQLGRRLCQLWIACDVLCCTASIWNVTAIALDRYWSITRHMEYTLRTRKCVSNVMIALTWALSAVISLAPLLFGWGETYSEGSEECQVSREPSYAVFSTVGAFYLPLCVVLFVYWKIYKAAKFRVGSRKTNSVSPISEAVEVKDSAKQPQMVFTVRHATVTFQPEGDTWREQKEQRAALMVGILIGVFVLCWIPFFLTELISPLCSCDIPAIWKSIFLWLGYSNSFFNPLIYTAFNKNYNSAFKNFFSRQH

[21] = biological target: Muscarinic acetylcholine receptor M2 (Homo sapiens, UniProt P08172)
Chain of Muscarinic acetylcholine receptor M2 (P08172 whole entry): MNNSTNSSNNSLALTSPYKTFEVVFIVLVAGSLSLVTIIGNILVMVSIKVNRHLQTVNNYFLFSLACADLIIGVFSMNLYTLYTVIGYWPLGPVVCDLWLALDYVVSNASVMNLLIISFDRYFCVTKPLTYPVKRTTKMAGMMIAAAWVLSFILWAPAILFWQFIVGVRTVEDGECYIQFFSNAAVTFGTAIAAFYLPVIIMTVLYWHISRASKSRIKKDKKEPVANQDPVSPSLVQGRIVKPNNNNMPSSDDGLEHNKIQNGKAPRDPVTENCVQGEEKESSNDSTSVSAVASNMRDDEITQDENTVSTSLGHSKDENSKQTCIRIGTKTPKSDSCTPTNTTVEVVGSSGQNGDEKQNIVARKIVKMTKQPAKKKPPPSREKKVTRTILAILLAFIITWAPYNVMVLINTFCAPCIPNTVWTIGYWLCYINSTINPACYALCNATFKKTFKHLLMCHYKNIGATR

[22] = biological target: 5-hydroxytryptamine receptor 1A (Homo sapiens, UniProt P08908)
[23] = biological target: Gamma-aminobutyric acid receptor subunit alpha-1 (Rattus norvegicus, UniProt P62813)
Chain of Gamma-aminobutyric acid receptor subunit alpha-1 (P62813 whole entry): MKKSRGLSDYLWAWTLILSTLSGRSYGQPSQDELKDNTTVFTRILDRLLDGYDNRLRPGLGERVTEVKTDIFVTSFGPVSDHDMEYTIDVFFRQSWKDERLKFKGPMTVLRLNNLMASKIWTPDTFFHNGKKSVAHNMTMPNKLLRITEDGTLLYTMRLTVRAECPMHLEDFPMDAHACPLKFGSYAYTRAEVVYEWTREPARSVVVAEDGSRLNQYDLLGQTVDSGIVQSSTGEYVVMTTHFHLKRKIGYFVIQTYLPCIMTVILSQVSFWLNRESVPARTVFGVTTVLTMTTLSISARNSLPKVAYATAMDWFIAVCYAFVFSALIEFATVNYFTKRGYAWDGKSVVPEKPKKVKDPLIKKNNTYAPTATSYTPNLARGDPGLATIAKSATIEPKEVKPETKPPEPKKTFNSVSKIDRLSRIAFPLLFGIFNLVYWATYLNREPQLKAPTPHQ

D(1B) dopamine receptor = D(1B) dopamine receptor (Homo sapiens, UniProt P21918)
Chain of D(1B) dopamine receptor (P21918 whole entry): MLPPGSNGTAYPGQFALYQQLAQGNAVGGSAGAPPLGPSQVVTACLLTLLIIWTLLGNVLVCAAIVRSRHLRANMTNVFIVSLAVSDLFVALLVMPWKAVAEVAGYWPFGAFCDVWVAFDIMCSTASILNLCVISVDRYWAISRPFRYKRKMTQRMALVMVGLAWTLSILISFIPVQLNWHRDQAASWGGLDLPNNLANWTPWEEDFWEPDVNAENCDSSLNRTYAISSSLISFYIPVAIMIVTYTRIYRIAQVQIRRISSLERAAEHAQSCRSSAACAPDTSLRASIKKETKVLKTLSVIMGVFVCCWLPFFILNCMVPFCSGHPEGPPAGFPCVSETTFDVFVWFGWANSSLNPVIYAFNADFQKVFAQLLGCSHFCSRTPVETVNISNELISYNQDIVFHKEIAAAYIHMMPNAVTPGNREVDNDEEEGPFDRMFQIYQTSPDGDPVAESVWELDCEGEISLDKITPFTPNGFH

[24] = biological target: Alpha-1A adrenergic receptor (Homo sapiens, UniProt P35348)
[25] = biological target: Beta-3 adrenergic receptor (Homo sapiens, UniProt P13945)
D(1A) dopamine receptor = D(1A) dopamine receptor (Homo sapiens, UniProt P21728)
[26] = biological target: Alpha-1D adrenergic receptor (Homo sapiens, UniProt P25100)
Chain of Alpha-1D adrenergic receptor (P25100 whole entry): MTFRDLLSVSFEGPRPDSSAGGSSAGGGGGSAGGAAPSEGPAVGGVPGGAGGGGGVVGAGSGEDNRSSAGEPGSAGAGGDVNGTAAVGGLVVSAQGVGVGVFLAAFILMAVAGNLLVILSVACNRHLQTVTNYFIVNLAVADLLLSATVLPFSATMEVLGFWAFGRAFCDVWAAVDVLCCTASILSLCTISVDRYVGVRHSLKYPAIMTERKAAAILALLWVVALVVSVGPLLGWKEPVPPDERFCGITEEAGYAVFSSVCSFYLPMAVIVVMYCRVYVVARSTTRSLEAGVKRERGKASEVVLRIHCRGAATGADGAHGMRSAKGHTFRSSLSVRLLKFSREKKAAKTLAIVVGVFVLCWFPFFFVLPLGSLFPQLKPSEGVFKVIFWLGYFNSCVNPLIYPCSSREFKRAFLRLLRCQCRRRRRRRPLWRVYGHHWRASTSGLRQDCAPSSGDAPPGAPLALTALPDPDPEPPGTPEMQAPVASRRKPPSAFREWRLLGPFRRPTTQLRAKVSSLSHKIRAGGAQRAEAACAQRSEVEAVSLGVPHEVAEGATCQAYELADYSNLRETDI

[27] = biological target: 5-hydroxytryptamine receptor 2C (Homo sapiens, UniProt P28335)
Histamine H2 receptor = Histamine H2 receptor (Homo sapiens, UniProt P25021)
D(4) dopamine receptor = D(4) dopamine receptor (Homo sapiens, UniProt P21917)
[28] = biological target: Muscarinic acetylcholine receptor M3 (Homo sapiens, UniProt P20309)
Chain of Muscarinic acetylcholine receptor M3 (P20309 whole entry): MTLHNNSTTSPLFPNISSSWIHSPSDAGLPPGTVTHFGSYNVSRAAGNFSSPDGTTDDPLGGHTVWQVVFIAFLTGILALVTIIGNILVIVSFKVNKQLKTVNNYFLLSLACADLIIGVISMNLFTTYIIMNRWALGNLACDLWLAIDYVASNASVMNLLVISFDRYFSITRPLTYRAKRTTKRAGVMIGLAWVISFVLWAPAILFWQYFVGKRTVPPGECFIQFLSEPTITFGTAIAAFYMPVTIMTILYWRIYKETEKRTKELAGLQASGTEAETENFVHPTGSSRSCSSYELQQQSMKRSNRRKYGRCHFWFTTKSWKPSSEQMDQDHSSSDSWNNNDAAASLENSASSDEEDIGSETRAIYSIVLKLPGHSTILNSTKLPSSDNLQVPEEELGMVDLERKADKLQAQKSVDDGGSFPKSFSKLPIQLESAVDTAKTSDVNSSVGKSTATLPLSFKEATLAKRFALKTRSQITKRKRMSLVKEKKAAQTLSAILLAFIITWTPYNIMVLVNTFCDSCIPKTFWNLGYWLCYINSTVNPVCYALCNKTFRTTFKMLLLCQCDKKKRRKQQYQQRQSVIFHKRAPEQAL

## CCN1CCCC1CNC(=O)c1cc(S(=O)(=O)CC)c(N)cc1OC (stereo not given) [NSC_2159]
[1]
  Ki: 1.74 µM
[2]
  Ki: > 10 µM
[3]
  Ki: > 10 µM
[4]
  Ki: > 10 µM
[5]
  Ki: 1.54 µM
Mu-type opioid receptor
  Ki: > 10 µM
[6]
  Ki: > 10 µM
[7]
  Ki: 1.11 µM
[8]
  Ki: > 10 µM
[9]
  Ki: 1.34 µM
[10]
  Ki: > 10 µM
[11]
  Ki: > 10 µM
[12]
  Ki: 4.15 µM
[13]
  Ki: > 10 µM
[14]
  Ki: > 10 µM
[15]
  Ki: > 10 µM
Histamine H4 receptor
  Ki: > 10 µM
Histamine H1 receptor
  Ki: > 10 µM
[16]
  Ki: > 10 µM
[17]
  Ki: > 10 µM
[18]
  Ki: > 10 µM
[19]
  Ki: > 10 µM
[20]
  Ki: > 10 µM
[21]
  Ki: > 10 µM
[22]
  Ki: > 10 µM
[23]
  Ki: > 10 µM
D(1B) dopamine receptor
  Ki: > 10 µM
[24]
  Ki: > 10 µM
[25]
  Ki: > 10 µM
D(1A) dopamine receptor
  Ki: > 10 µM
[26]
  Ki: > 10 µM
[27]
  Ki: > 10 µM
Histamine H2 receptor
  Ki: > 10 µM
D(4) dopamine receptor
  Ki: 2.37 µM
[28]
  Ki: > 10 µM
